# Patent publication US20220117879A1, “PHOTO-PROTECTIVE PLANT-DERIVED COMPOSITION” (Ariel Scientific Innovations Ltd., priority 2019, published 2022)
# Columns and labels:
# [1] = SPF (sun protection factor) calculated from UV absorption spectra with the Mansur equation; type: physicochemical; conditions: 0.01 mg/ml
# Description: Absorption spectra were used to calculate SPF (sun protection factor) values using the Mansur equation, according to procedures described by Dutra et al. [Braz J Pharma Sci 2004, 40:381-385], using OptLabTM X software ([…] order to investigate UVB blocking properties of various plants, a large-scale screening of traditionally-used herbs which grow in the Judean Desert was performed. The leaves, twigs, branches, fruits, and roots of each tested plant were collected, dried, ground and extracted separately in ethanol, water, chloroform or propylene glycol methyl ether acetate (PMA) using a Soxhlet system.
# [2] = Photostability of SH-401 films on PMMA slides exposed to UV radiation, SPF versus time; type: physicochemical; conditions: film on PMMA slide, 12 hours of exposure to UV radiation (FIG. 7)
# Description: In order to evaluate photostability, uniform films of pure SH-401 were prepared on PMMA (polymethyl methacrylate) slides by depositing 2 ml of […] solution on the slides and evaporating the solvent. The samples were then exposed to UV radiation for various time intervals, ranging up to 25 hours. The glass plates were then immersed in a mixture of ethanol/water (2:98% v/v) and the films were dissolved ultrasonically. The UV samples were then quantified by UV-visible absorption spectroscopy and the SPF value was determined according to procedures described hereinabove and plotted as a function of time.
# human skin explants [3] = assay: Epidermal cell viability in human skin explants, MTT assay; type: cell-based; conditions: topical application, entire concentration range tested (up to maximal solubility) (FIG. 8A)
# Excerpt: (§1) Skins were obtained with permission from 30-60 year-old healthy women undergoing aesthetic abdomen surgery, after signing an informed consent. A mechanical skin press was used to section the skin to 0.8×0.8 cm^2 pieces, according to procedures described in Portugal-Cohen et al. [Exp Dermatol 2011, 20:749-755]. The skin explants were maintained in an air/liquid interface, dermal side submerged in the medium, according to procedures described in Portugal-Cohen et al. [Exp Dermatol 2011, 20:749-755] and Cohen et al. [Dead Sea and Arava Studies 2015, 7:66-74]. The human skin explants were laid in 6-well culture plates containing DMEM (Dulbecco's modified Eagle medium) supplemented with 100 units/ml penicillin and 100 μg/ml streptomycin), dermal side down in the medium and epidermis up. All samples were used after an overnight recovery.
# In order to investigate the safety and efficacy of the active compound SH-401 (isolated as described in Example 2), several experiments were performed on human skin explants, according to procedures described in the Materials and Methods section hereinabove.
# human skin explants [4] = assay: UVB-induced apoptosis in epidermis of human skin explants, caspase-3 activation assay; type: cell-based; conditions: 24 hours after UVB 350 mJ/cm^2; 0.02-2 μg/cm^2; comparable to Ultrasol SPF 30 formulation (FIG. 8B)
# Excerpt: as §1
# TNFα = assay: UVB-induced TNFα hypersecretion in human skin explants, ELISA; type: cell-based; conditions: 24 hours after UVB 350 mJ/cm^2; 0.02-2 μg/cm^2; comparable to Ultrasol SPF 30 formulation (FIG. 8C)
# Excerpt: as §1
# human skin explants [5] = assay: UVB-induced ROS generation in skin explants, DCFDA assay; type: cell-based; conditions: 0.02-2 μg/cm^2, with UVB (FIG. 9)
# Excerpt: as §1
# (§2) A common feature of UVB-induced damage is the generation of ROS (reactive oxygen species), which increases DNA damage, amplifies the generation of lipid peroxidation and hampers proteins and membranes within the cells [Schuch et al., Free Rad Biol Med 2017, 107:110-124]. […] ROS generation upon UVB radiation was evaluated in skin explants both by DCFDA (dichlorofluorescin diacetate) assay, as well as by measuring lipid peroxidation (by ELISA), which is associated with ROS generation.
# human skin explants [6] = assay: UVB-induced lipid peroxidation (MDA) in skin explants, ELISA; type: cell-based; conditions: 0.02-2 μg/cm^2, with UVB (FIG. 10)
# Excerpt: as §1, §2
# [7] = Antioxidant capacity by DPPH colour shift, Trolox equivalents; conditions: 1 weight percent solution (FIG. 11)
# Excerpt: Antioxidant capacity was further evaluated using the DPPH (diphenylpicrylhydrazyl) method. The color shift of DPPH in the presence of SH-401 and converted to units of Trolox (6-hydroxy-2,5,7,8-tetramethylchroman-2-carboxylic acid) equivalent antioxidant capacity based on a calibration curve.
# human skin explants [8] = assay: DNA fragmentation in epidermis cells of skin explants, COMET assay; type: cell-based; conditions: UVB 350 mJ/cm^2, 2 μg/cm^2 (FIG. 12)
# Excerpt: as §1
# human skin explants [9] = assay: Cyclobutane pyrimidine dimers (CPD) in epidermis cells from skin explants, ELISA; type: cell-based; conditions: UVB 350 mJ/cm^2, 0.01-2 μg/cm^2 (FIG. 13)
# Excerpt: as §1
# human skin explants [10] = assay: Histological examination of UVB-irradiated skin explants; type: cell-based; conditions: UVB 350 mJ/cm^2 (FIGS. 14A-14D)
# Excerpt: as §1
# pro-collagen = assay: Pro-collagen level in UVB-irradiated skin explants, ELISA; type: cell-based, human; conditions: following UVB radiation (FIG. 15A)
# Excerpt: as §1
# [11] = system: matrix metalloproteinase-1 (MMP1); assay: MMP1 in UVB-irradiated skin explants, ELISA; type: cell-based, human; conditions: following UVB radiation (FIG. 15B)
# Excerpt: as §1
# HaCaT cells = assay: Wound closure in confluent HaCaT cell in vitro model; type: cell-based; conditions: confluent HaCaT cells with induced wound, 24 hours (FIG. 16)
# Description: The effect of SH-401 on wound healing in skin was assessed using a confluent HaCaT cell in vitro model of wound closure.
substance,measurement,setting,value
"1,2,3,4,6-pentagalloyl-β-D-glucose [SH-401]",increase of SPF value relative to the crude extract,[1],more than 10 fold
same,stability towards UV radiation (change in SPF value),[2],essentially no change in SPF value
same,skin viability (MTT),human skin explants [3],did not compromise skin viability
same,UVB-induced apoptosis in the epidermis (caspase-3 activation),human skin explants [4],attenuated
same,UVB-induced TNFα hypersecretion,TNFα,attenuated
same,UVB-induced ROS generation (DCFDA),human skin explants [5],attenuated
same,UVB-induced lipid peroxidation (MDA),human skin explants [6],attenuated
same,Trolox equivalent antioxidant capacity (DPPH),[7],"approximately 2,310 micromole Trolox equivalent (TE) units per 100 grams"
same,UVB-induced DNA damage (COMET),human skin explants [8],attenuated
same,UVB-induced formation of cyclobutane pyrimidine dimers (CPD),human skin explants [9],reduced
same,UVB-induced pyknotic sunburn cells and reduction of the epidermal layer (histology),human skin explants [10],reversed this deleterious effect of the radiation
same,collagen synthesis (pro-collagen),pro-collagen,enhanced
same,MMP1 activity,[11],reduced
same,wound closure,HaCaT cells,enhanced wound closure
